# In patent US20130324541A1, “POTENTIATOR OF ANTITUMOR ACTIVITY OF CHEMOTHERAPEUTIC AGENT” (Ajinomoto Co., Inc., priority 2011, published 2013):
# Columns and labels:
# [1] = system: human hepatic cancer cell line HAK4; test: Annexin V apoptosis, combined use of 5FU and BCAA, HAK4 cells; assay type: cell-based; conditions: 72 hr, BCAA 2 mM, 5FU 2.5 μg/ml
# Method: Human hepatic cancer cell line HAK4 cells were plated at a concentration of 3000 cells/well in a plate, and cultured 30 under the following conditions for 72 hr: • LC 2.5% medium • BCAA (2 mM) • 5FU (2.5 μg/ml) • BCAA (2 mM)+5FU (2.5 μg/ml)
# (§1) After 72 hr, using ApoAlert Annexin V-FITC Apoptosis kit (Clontech), the cells were stained with annexin V and fixed, and apoptotic cells (%) were detected by Array Scan (Thermo Fisher).
# To be specific, the cells in the 96 well plate were rinsed with 1×Binding Buffer, 40 μl of 1×Binding Buffer containing annexin V (1 μl) was added to each well, and the cells were incubated in the dark at room temperature for 5-15 min. The cells were washed, and fixed with 2% formaldehyde. 100 μl of PBS containing Hoechst33258 solution was added, and the cells were incubated in the dark for 5 min, and apoptotic cells (%) were detected by Array Scan.
# HAK1B cells = test: HAK1B subcutaneous transplant in nude mice, tumor weight and volume; assay type: in vivo, BALB/c nude mice; conditions: 5FU 250 μg/tumor into the tumor, 3(w/w)% BCAA mixed feed for 2 weeks, vs control group
# Method: HAK1B cells were subcutaneously transplanted to 7-week-old female BALB/c nude mice (purchased from Japan Charles River) at 7,000,000 cells/mouse. After 1 week, the mice were grouped based on the tumor area. 5FU 250 μg/tumor (vehicle 10% DMSO/DW) was administered into the tumor (see Cancer Research, 70(11), 4687-4697, 2010), as well as a 3(w/w) % BCAA mixed feed or a 3(w/w) % casein mixed feed was given for 2 weeks. That is, treatments of 4 groups are as described below: • group 1: vehicle+casein mixed feed (control group) • group 2: 5FU+casein mixed feed • group 3: vehicle+BCAA mixed feed • group 4: 5FU+BCAA mixed feed
# Using a vernier caliper, the tumor volume (longest Diameter×shortest diameter×height (mm^3)) was measured from the outer side of the tumor to monitor time-course changes in the tumor volume. On day 43, autopsy was performed, and the weight and volume of the tumor were measured.
# [2] = system: HCT116 cells (human colorectal cancer cell line); test: Annexin V apoptosis, combined use of 5FU and BCAA, HCT116 cells; assay type: cell-based; conditions: 72 hr, BCAA 2 mM, 5FU 2 μg/ml
# Method: HCT116 cells (human colorectal cancer cell line) were plated at a concentration of 4000 cells/well in a plate, and cultured under the following conditions for 72 hr: • LC 2.5% medium • BCAA (2 mM) • 5FU (2 μg/ml) • BCAA (2 mM)+5FU (2 μg/ml)
# as §1
# [3] = system: MKN45 cells (human gastric cancer cell line); test: WST-8 viable cell assay, 5FU and BCAA, MKN45 cells; assay type: cell-based; conditions: 72 hr, BCAA 2 mM or 4 mM, 5FU 0.05-1 μg/ml
# Method: MKN45 cells (human gastric cancer cell line) were plated in a 96 well plate at a concentration of 4000 cells/100 μl/well, and cultured under the following conditions for 72 hr: • LC medium (10% FBS) • LC medium +BCAA (2 mM or 4 mM) • LC medium +5FU (0.05 μg/ml, 0.1 μg/ml, 0.5 μg/ml or 1 μg/ml) • LC medium +BCAA (2 mM or 4 mM) +5FU (0.05 μg/ml, 0.1 μg/ml, 0.5 μg/ml or 1 μg/ml)
# After 72 hr, WST-8 reagent was added (10 μl/well) and, after color development for 1 hr, the absorbance of OD 450 nm was measured. The absorbance of each group was shown by a is relative value provided that the absorbance of a non-stimulation group was assumed to be 1000. WST-8 is reduced by intracellular dehydrogenase to produce water-soluble formazan. By directly measuring the absorbance of formazan at 450 nm, the number of viable cells can be easily measured. The cell number and the amount of produced formazan are in a linear proportional correlation.
# [4] = system: human breast cancer cell line MDA-MB231; test: Growth of MDA-MB231 cells (cell number, Hoechst staining); assay type: cell-based; conditions: 5 days, 5-FU 0.25 μg/ml, BCAA 4 mM
# Method: MDA-MB231 cells were suspended in RPMI-10% (RPMI medium containing 10% FBS), and plated in a plate at 2000 cells/well. The next day, the medium was exchanged to those shown below, and the cells were further cultured for 5 days. • group 1: RPMI-10% • group 2: RPMI-10% containing BCAA (4 mM) • group 3: RPMI-10% containing 5-FU (0.25 μg/m1) • group 4: RPMI-10% containing 5-FU (0.25 μg/ml) +BCAA (4 mM)
# After 5 days, cellular nucleus was stained with Hoechst reagent, and the cell number was counted. In groups 1 and 2, cells were stained with anti-CD44 antibody, and the ratio of CD44 positive cells was analyzed by Array Scan using fluorescence microscopic quantification apparatus (Thermo Fisher).
smiles,measurement,setting,value
"O=c1[nH]cc(F)c(=O)[nH]1 [5FU, 5-fluorouracil]",apoptotic cells (Annexin V positive cells),[1],increased
same,tumor volume,HAK1B cells,significantly decreased
same,tumor weight,HAK1B cells,significantly decreased
same,apoptotic cells (Annexin V positive cells),[2],increased
same,"number of viable cells (WST-8, OD 450 nm)",[3],decreased
same,number of viable cells (cell number),[4],decreased
